# Source: US20080076729A1, “Interferon-beta gene therapy using an improved, regulated expression system” (Schering Aktiengesellachaft, priority 2005, published 2008)
# Tested on: JE
# Assay: JE chemokine level in plasma of treated mice by ELISA
# Assay type: in vivo
# Settings: bolus protein, each of three doses
# Method: FIG. 7 illustrates induction levels of IP-10 (A) and JE (B) following i.v. or i.m. injection of murine IFN-β protein. C57BL/6 mice were administered 15, 150, or 500 ng of purified recombinant mIFN-β protein (specific activity=2.0×10^8 units/mg) by either i.v. (via tail vein) or i.m. injection (n=3 mice per group). The mice were bled at 2, 4, 6, 12, 24, and 48 hours post-injection, and the plasma levels of IP-10 and JE were measured by ELISA (R&D Systems).
# FIG. 19 illustrates IP-10 and JE induction with a pBRES mIFN-β regulated expression system of the present invention.
# • A. Development of mIFN-β Biomarkers: For higher sensitivity in detection of murine IFN-β (mIFN-β) activity in vivo, biomarkers for mIFN-β activity were identified in mice after injection of mIFN-β protein or mIFN-β encoded gene therapy vectors. […] In the present study, the expression of the MxA mouse homologue, Mx1, (see e.g., Hug, H et al. Mol Cell Biol 8: 3065-79; Pavlovic, J (1993) Ciba Found Symp 176: 233-43) isolated from murine peripheral blood monocytes (PBMC's) was used to detect the presence of biologically active mIFN-β. • A quantitative PCR/RT-PCR assay was developed to quantitate the levels of Mx1 mRNA in murine PBMC's. […] The samples were analyzed with an Mx1-specific probe/primer combination. […] The highest Mx1 expression levels were measured 2 hours after injection. […]
substance,measurement,value
mIFN-β: purified recombinant murine interferon-beta protein,time by which plasma JE dropped to background,≤ 24 h
